Activity calls are given as the source filed them. The rule behind the calls is not given here.
What was measured:
[1] = target: T1, NAD-dependent protein deacetylase sirtuin-1 (Homo sapiens) (UniProt Q96EB6); assay: Activation of human recombinant SIRT1 at 10 uM preincubated for 60 mins prior to substrate addition measured after 60 mins by fluorescence assay
T1 sequence (whole entry): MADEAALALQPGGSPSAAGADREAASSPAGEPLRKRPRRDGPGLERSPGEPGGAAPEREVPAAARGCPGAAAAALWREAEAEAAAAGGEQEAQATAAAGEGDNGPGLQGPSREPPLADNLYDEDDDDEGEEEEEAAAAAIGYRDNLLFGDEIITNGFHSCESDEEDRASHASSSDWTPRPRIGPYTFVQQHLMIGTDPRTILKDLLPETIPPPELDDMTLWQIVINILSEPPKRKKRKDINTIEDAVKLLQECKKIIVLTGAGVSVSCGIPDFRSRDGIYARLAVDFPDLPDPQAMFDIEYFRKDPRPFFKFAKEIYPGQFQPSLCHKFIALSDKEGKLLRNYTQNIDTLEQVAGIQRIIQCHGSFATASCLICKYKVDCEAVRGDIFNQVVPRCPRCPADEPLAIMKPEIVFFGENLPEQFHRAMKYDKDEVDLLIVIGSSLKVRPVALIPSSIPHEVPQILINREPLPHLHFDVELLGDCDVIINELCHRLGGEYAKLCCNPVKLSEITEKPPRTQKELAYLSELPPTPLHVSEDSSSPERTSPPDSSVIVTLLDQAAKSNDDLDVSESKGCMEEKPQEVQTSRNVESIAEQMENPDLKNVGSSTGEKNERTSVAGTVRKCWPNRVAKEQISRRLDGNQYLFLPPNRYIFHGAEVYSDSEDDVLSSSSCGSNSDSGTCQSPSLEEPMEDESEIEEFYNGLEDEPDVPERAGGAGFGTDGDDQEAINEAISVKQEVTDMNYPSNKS

[2] = target: T1, NAD-dependent protein deacetylase sirtuin-1 (Homo sapiens); assay: Activation of human recombinant SIRT1 at 100 uM preincubated for 60 mins prior to substrate addition measured after 60 mins by fluorescence assay

SMILES	Activity [1]	Activity [2]
O=C(Nc1cccc(-c2cn3c(CN4CCNCC4)csc3n2)c1)c1cc2ccccc2[nH]1	inactive	–
COCCOCOCc1csc2nc(-c3ccccc3NC(=O)c3cnc4ccccc4n3)cn12	inactive	–
O=C(Nc1ccccc1-c1cn2c(CN3CCNCC3)csc2n1)c1ccc2ccccc2c1	inactive	–
O=C(Nc1ccccc1-c1cn2c(CN3CCNCC3)csc2n1)c1cccc2ccccc12	inactive	–
O=C(Nc1cccc(-c2cn3c(CN4CCNCC4)csc3n2)c1)c1ccnc2ccccc12	inactive	–
O=C(Nc1ccccc1-c1cn2c(CN3CCNCC3)csc2n1)c1ccnc2ccccc12	inactive	–
O=C(Nc1cccc(-c2cn3c(CN4CCNCC4)csc3n2)c1)c1cnccn1	inactive	–
CNCc1csc2nc(-c3ccccc3NC(=O)c3cnc4ccccc4n3)cn12	inactive	–
COCc1csc2nc(-c3ccccc3NC(=O)c3cnc4ccccc4n3)cn12	inactive	–
O=C(Nc1ccccc1-c1cn2c(CN3CCNCC3)csc2n1)c1cnc2ccccc2n1	160%	Active

Further lines, results first:

Activity [1]	Activity [2]	SMILES
inactive	–	O=C(Nc1cccc(-c2cn3c(CN4CCCC4)csc3n2)c1)c1cnc2ccccc2n1
inactive	–	O=C(Nc1ccc(-c2cn3c(CN4CCNCC4)csc3n2)cc1)c1cnc2ccccc2n1
140%	Active	O=C(Nc1cccc(-c2cn3c(CN4CCNCC4)csc3n2)c1)c1ccc2ccccc2n1
140%	Active	O=C(Nc1cccc(-c2cn3c(CN4CCNCC4)csc3n2)c1)c1cnc2ccccc2c1
inactive	–	O=C(Nc1cccc(-c2cn3c(CN4CCOCC4)csc3n2)c1)c1cnc2ccccc2n1
inactive	–	O=C(Nc1cccc(-c2cn3c(CN4CCCCC4)csc3n2)c1)c1cnc2ccccc2n1
Active	Active	O=C(Nc1cccc(-c2cn3c(CN4CCNCC4)csc3n2)c1)c1cnc2ccccc2n1

Reference: ChEMBL document CHEMBL2412998, “Search for a novel SIRT1 activator: structural modification of SRT1720 and biological evaluation” (Bioorg Med Chem Lett, 2013)
